Assay results: patent publication US10758534B2 (Vertex Pharmaceuticals Incorporated, priority 2014, dated 2020)

Biological target: T1, F508del (Homo sapiens, UniProt P13569, DEL508-508)
T1 construct: expressed in transfected cells
Test: Protocol 2: FRET membrane potential optical assay (VIPR), identification of correction compounds
Format: cell-based
Details: Table 3; compounds of Table 1 as modulators of CFTR activity; protocol not stated
Outline: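 Correction of the F508del trafficking defect is scored as forskolin (10 μM)/genistein (20 μM)-stimulated Cl^− efflux in NIH3T3 mouse fibroblasts after a 16 hr, 37° C. compound exposure. Depolarization was followed optically using voltage-sensing FRET dyes.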

T1 sequence (P13569 with tags, fused parts or gaps DEL508-508): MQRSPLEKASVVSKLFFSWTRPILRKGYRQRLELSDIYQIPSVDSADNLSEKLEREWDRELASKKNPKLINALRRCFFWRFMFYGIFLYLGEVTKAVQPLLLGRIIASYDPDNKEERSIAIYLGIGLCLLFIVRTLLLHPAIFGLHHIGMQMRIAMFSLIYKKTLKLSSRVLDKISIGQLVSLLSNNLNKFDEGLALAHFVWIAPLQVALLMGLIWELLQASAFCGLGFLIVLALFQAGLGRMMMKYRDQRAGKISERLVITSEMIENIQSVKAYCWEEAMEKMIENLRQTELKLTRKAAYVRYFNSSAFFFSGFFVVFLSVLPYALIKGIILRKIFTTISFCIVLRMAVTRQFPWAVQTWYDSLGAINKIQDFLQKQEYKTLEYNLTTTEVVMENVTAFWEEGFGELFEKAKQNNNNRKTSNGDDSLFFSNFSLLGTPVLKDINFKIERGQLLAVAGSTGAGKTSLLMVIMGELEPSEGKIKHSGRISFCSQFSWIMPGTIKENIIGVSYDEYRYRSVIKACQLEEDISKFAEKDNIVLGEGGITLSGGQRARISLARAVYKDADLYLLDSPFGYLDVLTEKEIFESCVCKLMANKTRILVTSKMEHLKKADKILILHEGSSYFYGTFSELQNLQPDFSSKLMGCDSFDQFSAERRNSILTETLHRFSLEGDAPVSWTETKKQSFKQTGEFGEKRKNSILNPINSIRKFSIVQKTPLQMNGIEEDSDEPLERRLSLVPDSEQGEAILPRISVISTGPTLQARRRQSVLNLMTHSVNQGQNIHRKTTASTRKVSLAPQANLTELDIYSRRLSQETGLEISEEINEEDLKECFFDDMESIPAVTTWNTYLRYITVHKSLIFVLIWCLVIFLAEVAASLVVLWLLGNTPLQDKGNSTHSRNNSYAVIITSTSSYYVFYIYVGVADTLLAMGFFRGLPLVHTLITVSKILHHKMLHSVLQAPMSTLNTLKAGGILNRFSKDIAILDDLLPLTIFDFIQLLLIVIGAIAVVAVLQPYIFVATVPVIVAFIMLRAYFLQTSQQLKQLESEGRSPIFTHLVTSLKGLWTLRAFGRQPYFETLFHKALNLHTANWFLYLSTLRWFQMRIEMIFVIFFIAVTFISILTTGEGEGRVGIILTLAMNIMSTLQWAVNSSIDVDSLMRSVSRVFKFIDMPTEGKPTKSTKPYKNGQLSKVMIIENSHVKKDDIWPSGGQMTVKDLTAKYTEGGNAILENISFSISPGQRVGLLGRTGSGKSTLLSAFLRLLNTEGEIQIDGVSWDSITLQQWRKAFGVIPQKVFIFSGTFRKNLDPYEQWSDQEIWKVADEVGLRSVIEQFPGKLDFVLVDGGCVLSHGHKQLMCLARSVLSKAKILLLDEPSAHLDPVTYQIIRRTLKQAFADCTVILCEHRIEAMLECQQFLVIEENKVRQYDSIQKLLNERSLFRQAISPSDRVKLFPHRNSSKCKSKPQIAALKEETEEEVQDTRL

SMILES | EC30
Cc1cc(C)c(Oc2nc(C(C)(C)C)ccc2C(=O)NS(=O)(=O)c2cccnc2N)c(C)c1 [Compound 235, N-[(2-amino-3-pyridyl)sulfonyl]-6-tert-butyl-2-(2,4,6-trimethylphenoxy)pyridine-3-carboxamide] | +++ (“+++” means <3 uM)
Cc1cc(C)c(CN2C[C@@H](c3ccccc3)C[C@H]2C(=O)NS(=O)(=O)c2cccc(N)n2)c(C)c1 [Compound 236, (2S,4R)—N-[(6-Amino-2-pyridyl)sulfonyl]-4-phenyl-1-[(2,4,6-trimethylphenyl)methyl]pyrrolidine-2-carboxamide] | ++ (“++” means between 3 uM and 10 uM)
Cc1cc(F)cc(-c2nc(C(C)(C)C)ccc2C(=O)NS(=O)(=O)c2cccc(N)c2)c1 [Compound 237, N-(3-aminophenyl)sulfonyl-6-tert-butyl-2-(3-fluoro-5-methyl-phenyl)pyridine-3-carboxamide] | ++ (“++” means between 3 uM and 10 uM)
Cc1cc(C)c(Oc2nc(-c3ccc(Cl)c(OCC(C)C)c3)ccc2C(=O)NS(=O)(=O)c2cccc(N)n2)c(C)c1 [Compound 238, N-[(6-amino-2-pyridyl)sulfonyl]-6-(4-chloro-3-isobutoxy-phenyl)-2-(2,4,6-trimethylphenoxy)pyridine-3-carboxamide] | +++ (“+++” means <3 uM)
CC(C)(C)c1cc(C(=O)NS(=O)(=O)c2cccc(N)c2)n(Cc2c(F)cccc2C(F)(F)F)n1 [Compound 239, N-(3-aminophenyl)sulfonyl-5-tert-butyl-2-[[2-fluoro-6-(trifluoromethyl)phenyl]methyl]pyrazole-3-carboxamide] | +++ (“+++” means <3 uM)
Cc1cc(C)c(Oc2nc3ccccc3cc2C(=O)NS(=O)(=O)c2ccncc2)c(C)c1 [Compound 240, N-(4-pyridylsulfonyl)-2-(2,4,6-trimethylphenoxy)quinoline-3-carboxamide] | ++ (“++” means between 3 uM and 10 uM)
COc1ccc2c(c1)cc(C(=O)NS(=O)(=O)c1ccccc1)n2Cc1c(C)cc(C)cc1C [Compound 241, N-(benzenesulfonyl)-5-methoxy-1-[(2,4,6-trimethylphenyl)methyl]indole-2-carboxamide] | +++ (“+++” means <3 uM)
Cc1cc(C)c(Cn2cc(C(C)(C)C)cc2C(=O)NS(=O)(=O)c2ccccc2)c(C)c1 [Compound 242, N-(benzenesulfonyl)-4-tert-butyl-1-[(2,4,6-trimethylphenyl)methyl]pyrrole-2-carboxamide] | +++ (“+++” means <3 uM)
Cc1cccc(C)c1Oc1nc(C(F)(F)F)ccc1C(=O)NS(=O)(=O)c1cccc(N)c1 [Compound 243, N-(3-aminophenyl)sulfonyl-2-(2,6-dimethylphenoxy)-6-(trifluoromethyl)pyridine-3-carboxamide] | +++ (“+++” means <3 uM)
Cc1cc(C)c(Oc2nc(C(F)(F)F)ccc2C(=O)NS(=O)(=O)c2ccccc2)c(C)c1 [Compound 244, N-(benzenesulfonyl)-6-(trifluoromethyl)-2-(2,4,6-trimethylphenoxy)pyridine-3-carboxamide] | +++ (“+++” means <3 uM)
Cn1ccc2c(Cn3nc(C(C)(C)C)cc3C(=O)NS(=O)(=O)c3ccccc3)cccc21 [Compound 245, N-(benzenesulfonyl)-5-tert-butyl-2-[(1-methylindol-4-yl)methyl]pyrazole-3-carboxamide] | ++ (“++” means between 3 uM and 10 uM)
Cc1cccc(C)c1Oc1nc(C(F)(F)F)ccc1C(=O)NS(=O)(=O)c1cccc(N)n1 [Compound 246, N-[(6-amino-2-pyridyl)sulfonyl]-2-(2,6-dimethylphenoxy)-6-(trifluoromethyl)pyridine-3-carboxamide] | ++ (“++” means between 3 uM and 10 uM)
Cc1cc(C)c(Cn2c(C(=O)NS(=O)(=O)c3ccccn3)cc3ccccc32)c(C)c1 [Compound 247, N-(2-pyridylsulfonyl)-1-[(2,4,6-trimethylphenyl)methyl]indole-2-carboxamide] | +++ (“+++” means <3 uM)
Cc1cc(C)c(Cn2c(C(=O)NS(=O)(=O)c3ccccc3)cc3cc(C)ccc32)c(C)c1 [Compound 248, N-(benzenesulfonyl)-5-methyl-1-[(2,4,6-trimethylphenyl)methyl]indole-2-carboxamide] | +++ (“+++” means <3 uM)
CNc1cccc(S(=O)(=O)NC(=O)c2cc(C(C)(C)C)nn2Cc2c(C)cc(C)cc2C)c1 [Compound 249, 5-tert-butyl-N-[3-(methylamino)phenyl]sulfonyl-2-[(2,4,6-trimethylphenyl)methyl]pyrazole-3-carboxamide] | +++ (“+++” means <3 uM)
CCOc1ccccc1-c1ccc(C(=O)NS(=O)(=O)c2cccc(N)n2)c(Oc2c(C)cc(C)cc2C)n1 [Compound 250, N-[(6-amino-2-pyridyl)sulfonyl]-6-(2-ethoxyphenyl)-2-(2,4,6-trimethylphenoxy)pyridine-3-carboxamide] | +++ (“+++” means <3 uM)
Cc1ccc(Oc2nc(C(C)(C)C)ccc2C(=O)NS(=O)(=O)c2cccc(N)c2)c(C)c1 [Compound 251, N-(3-aminophenyl)sulfonyl-6-tert-butyl-2-(2,4-dimethylphenoxy)pyridine-3-carboxamide] | +++ (“+++” means <3 uM)

SMILES | EC30
CC(C)(C)c1ccc(-c2nc(C(C)(C)C)ccc2C(=O)NS(=O)(=O)c2cccc(N)c2)cc1 [Compound 252, N-(3-aminophenyl)sulfonyl-6-tert-butyl-2-(4-tert-butylphenyl)pyridine-3-carboxamide] | +++ (“+++” means <3 uM)
COc1cccc(S(=O)(=O)NC(=O)c2cc3ccccc3n2Cc2c(C)cc(C)cc2C)n1 [Compound 253, N-[(6-methoxy-2-pyridyl)sulfonyl]-1-[(2,4,6-trimethylphenyl)methyl]indole-2-carboxamide] | +++ (“+++” means <3 uM)
Cc1cc(C)c(CN2Cc3ccccc3C2C(=O)NS(=O)(=O)c2cccc(O)c2)c(C)c1 (stereo not drawn) [Compound 254, N-(3-hydroxyphenyl)sulfonyl-2-[(2,4,6-trimethylphenyl)methyl]isoindoline-1-carboxamide] | ++ (“++” means between 3 uM and 10 uM)
Cc1cc(C)c(Cn2cc(C(C)(C)C)nc2C(=O)NS(=O)(=O)c2cccc(N)c2)c(C)c1 [Compound 255, N-(3-aminophenyl)sulfonyl-4-tert-butyl-1-[(2,4,6-trimethylphenyl)methyl]imidazole-2-carboxamide] | +++ (“+++” means <3 uM)
Cc1cc(C)c(Oc2nn(C(C)(C)C)cc2C(=O)NS(=O)(=O)c2cccc(N)n2)c(C)c1 [Compound 256, N-[(6-amino-2-pyridyl)sulfonyl]-1-tert-butyl-3-(2,4,6-trimethylphenoxy)pyrazole-4-carboxamide] | +++ (“+++” means <3 uM)
Cc1cccc(C)c1Cn1nc(C(C)(C)C)cc1C(=O)NS(=O)(=O)c1ccccc1 [Compound 257, N-(benzenesulfonyl)-5-tert-butyl-2-[(2,6-dimethylphenyl)methyl]pyrazole-3-carboxamide] | +++ (“+++” means <3 uM)
COc1cccnc1S(=O)(=O)NC(=O)c1cc2ccccc2n1Cc1c(C)cc(C)cc1C [Compound 258, N-[(3-methoxy-2-pyridyl)sulfonyl]-1-[(2,4,6-trimethylphenyl)methyl]indole-2-carboxamide] | ++ (“++” means between 3 uM and 10 uM)
Cc1cc(C)c(Cn2c(C(=O)NS(=O)(=O)c3cccc(N)c3)cc3cc(C)ccc32)c(C)c1 [Compound 259, N-(3-aminophenyl)sulfonyl-5-methyl-1-[(2,4,6-trimethylphenyl)methyl]indole-2-carboxamide] | +++ (“+++” means <3 uM)
Cc1cc(C)c(Oc2nc3ccccc3cc2C(=O)NS(=O)(=O)c2cccc(N)c2)c(C)c1 [Compound 260, N-(3-aminophenyl)sulfonyl-2-(2,4,6-trimethylphenoxy)quinoline-3-carboxamide] | ++ (“++” means between 3 uM and 10 uM)
Cc1cc(C)c(Cn2nc(C(C)(C)C)nc2C(=O)NS(=O)(=O)c2cccc(N)c2)c(C)c1 [Compound 261, N-(3-aminophenyl)sulfonyl-5-tert-butyl-2-[(2,4,6-trimethylphenyl)methyl]-1,2,4-triazole-3-carboxamide] | +++ (“+++” means <3 uM)
CNc1cccc(S(=O)(=O)NC(=O)c2ccc(C(C)(C)C)nc2Oc2c(C)cc(C)cc2C)n1 [Compound 262, 6-tert-butyl-N-[[6-(methylamino)-2-pyridyl]sulfonyl]-2-(2,4,6-trimethylphenoxy)pyridine-3-carboxamide] | +++ (“+++” means <3 uM)
Cc1cccc(C)c1Cn1nc(-c2ccc3c(ccn3C)c2)cc1C(=O)NS(=O)(=O)c1ccccc1 [Compound 263, N-(benzenesulfonyl)-2-[(2,6-dimethylphenyl)methyl]-5-(1-methylindol-5-yl)pyrazole-3-carboxamide] | +++ (“+++” means <3 uM)
Cc1cc(C)c(Cn2c(C(=O)NS(=O)(=O)c3ccccc3)cc3ccccc32)c(C)c1 [Compound 264, N-(benzenesulfonyl)-1-[(2,4,6-trimethylphenyl)methyl]indole-2-carboxamide] | +++ (“+++” means <3 uM)
Cc1cc(C)c(Oc2nc(C(C)(C)C)ccc2C(=O)NS(=O)(=O)c2nc(N)cs2)c(C)c1 [Compound 265, N-(4-aminothiazol-2-yl)sulfonyl-6-tert-butyl-2-(2,4,6-trimethylphenoxy)pyridine-3-carboxamide] | +++ (“+++” means <3 uM)
Cc1cc(C)c(Cn2nc(C(C)(C)C)cc2C(=O)NS(=O)(=O)c2ccccc2C#N)c(C)c1 [Compound 266, 5-tert-butyl-N-(2-cyanophenyl)sulfonyl-2-[(2,4,6-trimethylphenyl)methyl]pyrazole-3-carboxamide] | +++ (“+++” means <3 uM)
COc1ncccc1S(=O)(=O)NC(=O)c1cc2cc(C)ccc2n1Cc1c(C)cc(C)cc1C [Compound 267, N-[(2-methoxy-3-pyridyl)sulfonyl]-5-methyl-1-[(2,4,6-trimethylphenyl)methyl]indole-2-carboxamide] | +++ (“+++” means <3 uM)
